{"source": "patent US8318668B2", "about": "(Trustees of Tufts College, priority 2005, dated 2012)", "key": {"db mice [1]": {"test_system": "db mice", "experiment": "Time course of blood glucose lowering in db mice", "settings": "8 μg injected; for duration of action (in words): db / diabetic mice", "protocol": "At each time point the percent change in blood glucose was determined for 10 mice and the average change±SEM is plotted.\nAt each time point, the percentage change in blood glucose was determined for 10 mice and the average change±SEM is plotted.\nIn an exemplary embodiment, for treatment of the mice with a regimen including a peptide hormone analog or control, sub-orbital sinus blood samples are taken before and at some time (e.g., 60 minutes) after dosing of each animal. Blood glucose measurements can be made by any of several conventional techniques, such as using a glucose meter. The blood glucose levels of the control and peptide hormone analog dosed animals are compared"}, "rat DPP IV": {"molecular_target": "rat DPP IV (Rattus norvegicus, UniProt P14740)", "sequence (P14740 whole entry)": "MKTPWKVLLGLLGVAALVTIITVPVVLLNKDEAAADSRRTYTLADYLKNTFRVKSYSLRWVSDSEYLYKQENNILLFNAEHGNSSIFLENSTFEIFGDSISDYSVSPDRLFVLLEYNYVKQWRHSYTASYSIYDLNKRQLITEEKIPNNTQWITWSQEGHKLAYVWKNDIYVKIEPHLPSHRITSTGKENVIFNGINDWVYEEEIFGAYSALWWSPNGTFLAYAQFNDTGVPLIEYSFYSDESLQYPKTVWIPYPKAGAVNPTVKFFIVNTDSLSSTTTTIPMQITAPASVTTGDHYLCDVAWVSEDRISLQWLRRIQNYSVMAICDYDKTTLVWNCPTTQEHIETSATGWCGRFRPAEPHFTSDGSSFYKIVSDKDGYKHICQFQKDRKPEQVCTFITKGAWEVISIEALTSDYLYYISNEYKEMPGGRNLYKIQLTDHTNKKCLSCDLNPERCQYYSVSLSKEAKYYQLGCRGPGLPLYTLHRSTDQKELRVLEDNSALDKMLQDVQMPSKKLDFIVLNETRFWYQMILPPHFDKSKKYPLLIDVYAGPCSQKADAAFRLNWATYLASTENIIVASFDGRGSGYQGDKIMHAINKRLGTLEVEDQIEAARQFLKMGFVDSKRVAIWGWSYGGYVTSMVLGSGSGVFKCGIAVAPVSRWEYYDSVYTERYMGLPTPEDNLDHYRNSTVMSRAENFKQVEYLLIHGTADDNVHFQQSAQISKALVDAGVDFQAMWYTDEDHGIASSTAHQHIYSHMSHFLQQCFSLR", "experiment": "Digestion of model hexapeptides by rat DPP IV (LCMS)", "settings": "for half-life: pH 8", "excerpt": "The data were fit to a single phase exponential equation.\nDPP-IV cleaves the N-terminal dipeptide from peptides with either Pro or Ala in the penultimate position (P2)."}, "db mice [2]": {"test_system": "db mice", "experiment": "Dose response of blood glucose lowering in diabetic (db) mice", "format": "in vivo", "settings": "blood glucose 60 minutes post injection", "excerpt": "The data were fit to a sigmoidal dose response curve."}, "human GLP-1 receptor": {"molecular_target": "human GLP-1 receptor (Homo sapiens, UniProt P43220)", "sequence (P43220 24-463)": "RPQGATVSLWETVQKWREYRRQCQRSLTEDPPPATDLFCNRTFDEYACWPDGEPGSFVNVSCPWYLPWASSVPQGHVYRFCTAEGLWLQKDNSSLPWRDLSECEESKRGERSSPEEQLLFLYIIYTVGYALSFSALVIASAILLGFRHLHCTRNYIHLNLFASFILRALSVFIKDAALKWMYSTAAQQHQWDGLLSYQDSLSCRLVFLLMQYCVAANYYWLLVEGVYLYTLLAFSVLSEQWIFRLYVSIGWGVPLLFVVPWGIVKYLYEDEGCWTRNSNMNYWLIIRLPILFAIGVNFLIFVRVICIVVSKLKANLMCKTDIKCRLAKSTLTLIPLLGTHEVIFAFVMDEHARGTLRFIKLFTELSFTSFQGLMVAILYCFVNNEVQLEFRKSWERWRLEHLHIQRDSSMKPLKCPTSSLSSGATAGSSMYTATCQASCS", "settings": "peptide concentration 300 nM", "protocol": "Peptides were tested for agonist activity at a concentration of 300 nM. The data represent the mean±SEM with n=4.\nData values∓SEM are plotted and fit to a sigmoidal dose-response curve."}}, "note": "Square brackets hold non-standard residues; d marks the D form. Ends that are not written are not given here. Peptide text beside a SMILES is read from it. Tle = CC(C)(C)[C@H](N)C(=O)O"}
{"compound": "HAXGTFTSDVSSYLEGQAAKEFIAWLVKGRZ-NH2 (HAXGTFTSDVSSYLEGQAAKEFIAWLVKGRX; β-dimethyl Asp, biphenylalanine, C-terminal amide) [DGS69]", "values": [{"measurement": "duration of action (in words)", "setting": "db mice [1]", "result": "significantly increased the duration"}]}
{"compound": "APISWS-NH2 [Ala-Pro-Ile-Ser-Trp-Ser-NH2]", "values": [{"measurement": "half-life", "setting": "rat DPP IV", "result": 41, "unit": "min"}]}
{"compound": "C[C@H](N)C(=O)N1CCC[C@H]1C(=O)N[C@H](C(=O)N[C@@H](CO)C(=O)N[C@@H](Cc1c[nH]c2ccccc12)C(=O)N[C@@H](CO)C(N)=O)C(C)(C)C", "note": "[Ala-Pro-Tle-Ser-Trp-Ser-NH2] (H-AP[Tle]SWS-NH2)", "values": [{"measurement": "cleavage by rat DPP IV (in words)", "setting": "rat DPP IV", "result": "No reaction was observed"}]}
{"compound": "CC[C@H](C)[C@H](NC(=O)[C@H](Cc1ccccc1)NC(=O)[C@H](CCC(=O)O)NC(=O)[C@H](CCCCN)NC(=O)[C@H](C)NC(=O)[C@H](C)NC(=O)[C@H](CCC(N)=O)NC(=O)CNC(=O)[C@H](CCC(=O)O)NC(=O)[C@H](CC(C)C)NC(=O)[C@H](Cc1ccc(O)cc1)NC(=O)[C@H](CO)NC(=O)[C@H](CO)NC(=O)[C@@H](NC(=O)[C@H](CC(=O)O)NC(=O)[C@H](CO)NC(=O)[C@@H](NC(=O)[C@H](Cc1ccccc1)NC(=O)[C@@H](NC(=O)CNC(=O)[C@H](CCC(=O)O)NC(=O)[C@H](C)NC(=O)[C@@H](N)Cc1c[nH]cn1)[C@@H](C)O)[C@@H](C)O)C(C)C)C(=O)N[C@@H](C)C(=O)N[C@@H](Cc1c[nH]c2ccccc12)C(=O)N[C@@H](CC(C)C)C(=O)N[C@H](C(=O)N[C@@H](CCCCN)C(=O)NCC(=O)N[C@@H](CCCNC(=N)N)C(N)=O)C(C)C", "note": "[GLP-1, reference compound]", "values": [{"measurement": "duration of action (in words)", "setting": "db mice [1]", "result": "largely gone by 60 minutes"}]}
{"compound": "APLSWS-NH2 [Ala-Pro-Leu-Ser-Trp-Ser-NH2]", "values": [{"measurement": "half-life", "setting": "rat DPP IV", "result": 49, "unit": "min"}]}
{"compound": "CC[C@H](C)[C@H](NC(=O)[C@H](Cc1ccccc1)NC(=O)[C@H](CCC(=O)O)NC(=O)[C@H](CCCCN)NC(=O)[C@H](C)NC(=O)[C@H](C)NC(=O)[C@H](CCC(N)=O)NC(=O)CNC(=O)[C@H](CCC(=O)O)NC(=O)[C@H](CC(C)C)NC(=O)[C@H](Cc1ccc(O)cc1)NC(=O)[C@H](CO)NC(=O)[C@H](CO)NC(=O)[C@@H](NC(=O)[C@H](CC(=O)O)NC(=O)[C@H](CO)NC(=O)[C@@H](NC(=O)[C@H](Cc1ccccc1)NC(=O)[C@@H](NC(=O)CNC(=O)[C@@H](NC(=O)[C@H](C)NC(=O)[C@@H](N)Cc1c[nH]cn1)C(C)(C)C(=O)O)[C@@H](C)O)[C@@H](C)O)C(C)C)C(=O)N[C@@H](C)C(=O)N[C@@H](Cc1c[nH]c2ccccc12)C(=O)N[C@@H](CC(C)C)C(=O)N[C@H](C(=O)N[C@@H](CCCCN)C(=O)NCC(=O)N[C@@H](CCCNC(=N)N)C(N)=O)C(C)C", "note": "[TPA1B4, HAXGTFTSDVSSYLEGQAAKEFIAWLVKGR-NH2]", "values": [{"measurement": "95% confidence interval of EC50 of glucose lowering effect", "setting": "db mice [2]", "result": "0.1 to 1.92", "unit": "µg"}, {"measurement": "EC50 of glucose lowering effect", "setting": "db mice [2]", "result": 0.4, "unit": "µg"}, {"measurement": "blood glucose level reached (in words)", "setting": "db mice [1]; db mice", "result": "within the range observed for normal mice"}, {"measurement": "duration of blood glucose lowering effect", "setting": "db mice [1]; db mice", "result": "at least 90 minutes"}, {"measurement": "time of return of blood glucose to hyperglycemic values", "setting": "db mice [1]; db mice", "result": "≤ 4", "unit": "h"}, {"measurement": "amount of GLP-1 receptor activation as measured by cAMP production", "setting": "human GLP-1 receptor", "result": "the same"}]}
